Key:
[1] = tested on: PGE2 production in HCA-7 colon cancer cells; test: PGE2 production assay in IL-1β-treated HCA-7 cells; type: cell-based; settings: Homo sapiens, HCA-7, read-out: PGE2 (%): % of inhibition of PGE2 levels in HCA-7 cells, 1 μM concentration; ± SD (n = 3); NR = no observed reduction
[2] = target: T1, COX-2 (Homo sapiens, UniProt P35354); test: COX-2 cell-free assay; settings: read-out: COX-2 (%): % of inhibition of COX-2 levels in vitro
T1 sequence (P35354 18-604): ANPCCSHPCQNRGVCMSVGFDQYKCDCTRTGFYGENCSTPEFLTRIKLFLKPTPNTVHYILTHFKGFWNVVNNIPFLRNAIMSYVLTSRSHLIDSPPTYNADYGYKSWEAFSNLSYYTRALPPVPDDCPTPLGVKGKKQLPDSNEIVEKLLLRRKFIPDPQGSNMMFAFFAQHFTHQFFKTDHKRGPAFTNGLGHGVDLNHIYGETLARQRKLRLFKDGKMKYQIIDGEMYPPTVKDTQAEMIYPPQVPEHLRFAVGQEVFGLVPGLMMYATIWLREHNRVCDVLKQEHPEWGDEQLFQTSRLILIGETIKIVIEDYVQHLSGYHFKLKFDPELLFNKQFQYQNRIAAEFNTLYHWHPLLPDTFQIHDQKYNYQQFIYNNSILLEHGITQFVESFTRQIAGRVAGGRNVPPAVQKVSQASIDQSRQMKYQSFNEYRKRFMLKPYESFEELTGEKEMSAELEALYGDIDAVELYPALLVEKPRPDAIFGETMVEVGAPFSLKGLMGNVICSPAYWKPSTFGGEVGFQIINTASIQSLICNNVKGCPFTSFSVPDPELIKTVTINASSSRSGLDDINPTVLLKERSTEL

SMILES	inhibition at 1 µM [1] [%]	inhibition at 5 µM [2] [%]
O=C(c1ccccc1)c1sc(Nc2ccc3c(c2)OCO3)nc1-c1ccccc1 [5a]	< 0	–
COc1ccc(Nc2nc(-c3ccccc3)c(C(=O)c3ccccc3)s2)cc1 [5c]	< 0	–
Cc1nc(Nc2ccc(Oc3ccccc3)cc2)sc1C(C)O (stereo not drawn) [5l]	–	-16.9 ± 10

— article PMC3727903 (Bioorganic & medicinal chemistry letters, 2012)
